Common to all, as to format: cell-based, human
In series [1] the test system is DR5 RARE-containing promoter in MCF-7 cells. Nature of the series: DR5-luciferase transient transfection assay (RARE-dependent transcription). The note with it: 100 nM, 24 hrs. How it is done:
The assays were carried out in triplicate. RA is all-trans retinoic acid. LGD1550 is a pan-RAR agonist. LG100815 is a pan-RAR antagonist.
To confirm the ability of LG100815 to antagonize RARE-dependent induction of transcription analysis of firefly luciferase expression from a RARE-containing artificial promoter DR5 (Stratagene, catalog number 240119) was performed. Cells were plated to the density of 3×10^5 in P60 24 hrs before transient transfection. DR5 reporter plasmid (4 μg) was mixed with the SV40-driven-Renilla luciferase control plasmid (0.04 μg) and transfected using Lipofectamine Plus (Life Technologies/Invitrogen, Carlsbad, Calif.) as described by the manufacturer. 3 hrs after transfection, cells were rinsed three times with PBS, trypsinized and replated in a 12-well plate to the density of 5×10^4 cells per well. Retinoid agonists and antagonists were added 48 hrs later, and the luciferase assay was performed after another 24 hrs.

The subject of series [2] is retinoid-inducible genes EPLIN, UBD, IGFBP3, TGFB1 and TRIM31 in MCF-7 cells (subline MCF-7 3′SS6). Nature of the series: real-time RT-PCR (QPCR) of retinoid-inducible gene expression, 2 days treatment. The note with it: for fold induction at 0.1 µM: Homo sapiens, MCF7, 48 h; for fold induction at 0.1 µM / Fold induction EPLIN / Fold induction IGFBP3 / Fold induction TGFBI / Fold induction TRIM31 / Fold induction UBD: 2 days, MCF-7. An excerpt: The following compounds were obtained from Ligand Pharmaceuticals (San Diego, Calif.). LGD1550 is a pan-RAR agonist. LGD1268 is a pan-RXR agonist. LG100815 is a pan-RAR antagonist. LG101208 is a pan-RXR antagonist. The LG100815 compound is a specific RAR antagonist that binds to RAR, but fails to activate its Retinoic Acid Responsive Element (RARE)-dependent transcription transactivation function (see Lee et al, Mol. Cell Biol. 19: 1973-1980 (1999)). Also used was all-trans retinoic acid (RA), the most commonly used RAR agonist. To determine how these compounds affect the expression of retinoid-inducible growth inhibitory genes EPLIN, UBD, IGFBP3 and TGFB1, as well as TRIM31 gene that contains a putative RARE element in its promoter, MCF-7 cells (subline MCF-7 3′SS6) were treated with individual compounds or their combinations for 2 days, and RNA was extracted by standard procedures. In the initial assays, gene expression was analyzed by semi-quantitative reverse transcription-PCR (RT-PCR), as described in Dokmanovic et al., Cancer Biology & Therapy 1:24-27 (2002). In subsequent assays, the initial results were confirmed, expanded and quantitated by real-time RT-PCR (QPCR), using Applied BioSystems 7900HT real-time PCR instrument. β-actin was used as a normalization standard.
cDNA was prepared by reverse transcription with random primer using 4 μg total RNA. 5 μl SYBR Green PCR Master Mix (Applied Biosystems) was mixed with […] cDNA and 0.8 pmol of gene-specific primers and brought up to 10 μl with ultra pure H2O in 384-well optical plates. For amplification, reaction mixtures were heated for 2 min at 50° C. and 10 min at 95° C., followed by 40 cycles of two-step PCR consisting of 15 sec at 95° C. and 1 min at 60° C., to construct dissociation curves and verify that single PCR products were obtained. PCR products were also analyzed by gel electrophoresis to confirm that a single product of the expected size was amplified. […] The comparative CT method for relative quantitation of gene expression described by Applied Biosystems was used to determine expression levels for target genes. Experiments were carried out in triplicate for each data point. Sequence Detection Systems software version 2.1 (Applied Biosystems) and Microsoft Excel were used for data analysis.

The subject of series [3] is MCF-7 cells. Briefly: MCF-7 cell growth, cell number after 7 days. The note with it: 100 nM RA, LGD1550, LGD1268, 10 μM LG100815, LG101208. How it is done: The bars represent cell number after 7 days of culture with the addition of DMSO (control), 100 nM RA, 100 nM RAR agonist LGD1550, 100 nM RXR agonist LGD1268, 10 μM RAR antagonist LG100815, and 10 μM RXR antagonist LG101208. Experiments were done in triplicate, and the results are expressed relative to the average of the control.
(§1) To test this, we have analyzed the effects of different compounds on the growth of MCF-7 cells, as measured by the cell number after 7 days exposure to the compounds (FIG. 2) and on the fraction of cells expressing the senescence-associated β-galactosidase activity (SA-β-gal), a marker of senescence, after 7-day treatment with the compounds (FIG. 3).

The test system of series [4] is MCF-7 cells. Briefly: senescence-associated β-galactosidase (SA-β-gal) positive cells. The note with it: 7-day treatment (FIG. 3 legend: 8 days); concentrations as in FIG. 2.
Description: The bars represent percentages of SA-β-gal+ cells after 8 days of treatment with the indicated compounds (in triplicate). The compounds were used at the same concentrations as in FIG. 2.
as §1

“Also recorded” adds a separate entry of the source. Read-outs that look alike come from different tables or passages of the source.

Take `CC1=C(/C=C/C(C)=C/C=C/C(C)=C/C(=O)O)C(C)(C)CCC1` [RA, all-trans retinoic acid]: the “induction of luciferase expression from DR5 RARE-containing promoter” value in series [1] is on record as “approximately 50 fold”. The “ratio of the fold-induction of TGFB1 relative to TRIM31” value in series [2] (100 nM) is listed as 0.19. The fold induction at 0.1 µM in series [2] (100 nM, read-out: Fold induction EPLIN) was 3.1 ± 0.7; in series [2] (100 nM, read-out: Fold induction IGFBP3), 2.5 ± 0.5; in series [2] (100 nM, read-out: Fold induction TGFBI) it was 6.5 ± 1.4; in series [2] (100 nM, read-out: Fold induction TRIM31) it was 34.4 ± 3.9; in series [2] (100 nM, read-out: Fold induction UBD), 8.5 ± 2.8.
For the molecule `Cc1cc2c(cc1C1(c3ccc(C(=O)O)cn3)CC1)C(C)(C)CCC2(C)C` [LGD1268], in series [3], the “effect on MCF-7 cell growth (cell number)” value is listed as “did not inhibit cell growth; also recorded: modest but reproducible increase in cell growth”. Further, in series [4], the “induction of senescent phenotype (SA-β-gal+ cells)” value is on record as “did not induce the senescent phenotype”. Besides, in series [2] (100 nM), the “Fold induction EPLIN” value is reported as 1.2 ± 0.2 fold, the “Fold induction IGFBP3” value was 1.2 ± 0.5 fold, the “Fold induction TGFBI” value is given as 1.9 ± 1.1 fold and the “Fold induction TRIM31” value is 1.3 ± 0.4 fold. In series [2] (100 nM), the “Fold induction UBD” value is given as 1.0 ± 0.1 fold. In series [2] (1 μM), the “Fold induction EPLIN” value turned out to be 1.0 ± 0.1 fold, the “Fold induction IGFBP3” value was 0.9 ± 1.1 fold, the “Fold induction TGFBI” value was determined as 2.2 ± 1.0 fold and the “Fold induction TRIM31” value came to 1.4 ± 0.7 fold. For the same molecule, the “Fold induction UBD” value in series [2] (1 μM) was determined as 0.8 ± 0.2 fold. For the same molecule, in series [2] (10 μM), the “Fold induction EPLIN” value came to 1.4 ± 0.2 fold, the “Fold induction IGFBP3” value is reported as 1.2 ± 0.4 fold, the “Fold induction TGFBI” value was 2.4 ± 0.3 fold and the “Fold induction TRIM31” value worked out at 3.8 ± 0.7 fold. The “Fold induction UBD” value in series [2] (10 μM) is 1.0 ± 0.2 fold. In series [2] (summary of Table 2, MCF-7), the “effect on expression of the five genes (IGFBP3, EPLIN, UBD, TGFB1, TRIM31)” value is on record as “induced only one of five genes (TGFB1)”.

For the origin of these results see patent US20060217305A1, “Induction of tumor cell senescence by retinoid receptor agonists and antagonists” (Ordway Research Institute, Inc., priority 2005, published 2006).
